Drawing on patent US9096548B2, “Pyrazine amide compounds” (Boehringer Ingelheim International GmbH, priority 2013, dated 2015), this text covers IC50 for 25 compounds.

Broadly, the IC50 is the concentration at which inhibition is half-maximal.

Structures are written as SMILES. Structures can show the parent of a compound that is named as a salt.

The target of one test is T1, ENaC (Epithelial Sodium Channel) (Mus musculus, UniProt Q61180+Q9WU38+Q9WU39).
T1 construct: Mouse kidney M−1 cells were cultivated in DMEM; endogenous in cells; host or cells: Mouse kidney M-1 cells, cultivated with dexamethasone on transwell filters
T1 sequence (Q61180 1-699): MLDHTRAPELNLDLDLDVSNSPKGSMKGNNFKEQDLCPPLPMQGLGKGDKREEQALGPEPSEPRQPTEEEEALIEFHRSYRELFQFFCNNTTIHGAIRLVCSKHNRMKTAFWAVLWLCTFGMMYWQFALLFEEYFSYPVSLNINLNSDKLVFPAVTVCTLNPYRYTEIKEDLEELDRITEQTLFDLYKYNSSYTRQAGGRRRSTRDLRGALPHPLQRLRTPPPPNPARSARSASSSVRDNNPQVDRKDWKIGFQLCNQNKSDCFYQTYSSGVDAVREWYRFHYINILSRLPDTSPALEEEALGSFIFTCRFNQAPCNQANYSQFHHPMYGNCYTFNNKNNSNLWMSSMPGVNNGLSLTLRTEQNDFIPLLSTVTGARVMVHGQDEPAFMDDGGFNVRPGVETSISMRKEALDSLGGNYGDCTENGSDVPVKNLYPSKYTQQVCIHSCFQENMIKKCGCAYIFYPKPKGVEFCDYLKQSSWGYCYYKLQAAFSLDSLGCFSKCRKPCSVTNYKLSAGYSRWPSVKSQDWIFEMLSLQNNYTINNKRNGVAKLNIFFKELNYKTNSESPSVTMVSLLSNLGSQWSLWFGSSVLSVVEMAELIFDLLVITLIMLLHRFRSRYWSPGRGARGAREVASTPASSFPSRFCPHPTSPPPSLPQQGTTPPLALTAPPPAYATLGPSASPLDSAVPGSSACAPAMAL
T1 sequence (Q9WU38 1-638): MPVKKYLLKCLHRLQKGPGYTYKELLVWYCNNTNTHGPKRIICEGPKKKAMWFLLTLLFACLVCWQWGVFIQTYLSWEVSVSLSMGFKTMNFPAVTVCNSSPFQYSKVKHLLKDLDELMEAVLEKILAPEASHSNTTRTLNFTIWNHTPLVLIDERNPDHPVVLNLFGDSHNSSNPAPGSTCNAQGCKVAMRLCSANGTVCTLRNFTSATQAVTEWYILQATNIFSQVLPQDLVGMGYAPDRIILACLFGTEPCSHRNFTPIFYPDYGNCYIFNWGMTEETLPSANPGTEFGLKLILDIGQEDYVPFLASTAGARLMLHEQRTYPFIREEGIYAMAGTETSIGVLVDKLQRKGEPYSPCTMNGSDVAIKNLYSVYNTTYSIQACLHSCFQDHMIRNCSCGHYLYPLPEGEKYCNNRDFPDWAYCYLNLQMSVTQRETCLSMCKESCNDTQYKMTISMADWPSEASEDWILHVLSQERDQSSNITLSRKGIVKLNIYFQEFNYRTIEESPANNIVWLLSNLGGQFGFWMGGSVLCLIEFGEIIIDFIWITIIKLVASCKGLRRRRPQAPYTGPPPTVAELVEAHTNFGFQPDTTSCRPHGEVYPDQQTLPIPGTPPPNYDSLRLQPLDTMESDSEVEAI
T1 sequence (Q9WU39 1-655): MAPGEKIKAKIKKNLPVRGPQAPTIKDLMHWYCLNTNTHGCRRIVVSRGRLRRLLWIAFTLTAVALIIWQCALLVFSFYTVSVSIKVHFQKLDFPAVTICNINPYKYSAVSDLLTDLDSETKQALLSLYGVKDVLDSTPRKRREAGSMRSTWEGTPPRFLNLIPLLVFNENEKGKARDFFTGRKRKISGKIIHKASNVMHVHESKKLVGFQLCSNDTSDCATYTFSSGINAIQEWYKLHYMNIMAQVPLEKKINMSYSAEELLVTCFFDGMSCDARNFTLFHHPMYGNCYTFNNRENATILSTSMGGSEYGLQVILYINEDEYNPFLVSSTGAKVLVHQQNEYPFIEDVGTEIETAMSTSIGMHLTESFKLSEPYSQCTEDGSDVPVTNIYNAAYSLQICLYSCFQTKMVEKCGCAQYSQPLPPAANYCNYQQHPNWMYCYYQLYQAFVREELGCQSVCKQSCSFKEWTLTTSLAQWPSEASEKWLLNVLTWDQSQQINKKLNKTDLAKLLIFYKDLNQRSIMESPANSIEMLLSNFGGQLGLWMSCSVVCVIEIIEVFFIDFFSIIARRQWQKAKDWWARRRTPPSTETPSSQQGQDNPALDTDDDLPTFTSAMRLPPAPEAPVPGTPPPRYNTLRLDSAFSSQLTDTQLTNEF
Put plainly: Ussing Chamber assay (short circuit current, amiloride sensitive I_SC). The class given is cell-based. As to conditions: Ussing chamber, mouse kidney M-1 cells, short circuit current, compound added to the apical solution; read-out: IC50. The method in brief:
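Mouse kidney M-1 cells grown 10–12 days on filters with 5 μM dexamethasone, measured in Caco-2 transport buffer at 37° C under voltage clamp. Compound applied apically at 3 μM or 1-3-10 μM; 3 μM amiloride added at end. Short circuit current inhibition given as percent of amiloride effect or IC50.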
Consider `CN(Cc1ccncc1)C(=O)COc1ccc(CCC[N+]2(CCCc3ccc(OCC(=O)N(C)Cc4ccncc4)cc3)CCC[C@H](NC(=O)c3nc(Cl)c(N)nc3N)C2)cc1` [Example 6.17], for which the IC50 came to 0.021 µM.
As to `C[N+](C)(C)CCNC(=O)COc1ccc(CCC[N+]2(CCCc3ccc(OCC(=O)NCC[N+](C)(C)C)cc3)CCC[C@H](NC(=O)c3nc(Cl)c(N)nc3N)C2)cc1` [Example 6.10], the IC50 was found to be 0.068 µM.
Regarding `Nc1nc(N)c(C(=O)N[C@H]2CCC[N+](CCCc3ccc(OCC(=O)N4CCS(=O)(=O)CC4)cc3)(CCCc3ccc(OCC(=O)N4CCS(=O)(=O)CC4)cc3)C2)nc1Cl` [Example 6.24], the half-inhibitory concentration (IC50) was 0.047 µM.
As for `CN(C)CCCN(C)C(=O)COc1ccc(CCC[N+]2(CCCc3ccc(OCC(=O)N(C)CCCN(C)C)cc3)CCCC(NC(=O)c3nc(Cl)c(N)nc3N)C2)cc1` (stereo not shown) [Example 6.8], the half-inhibitory concentration (IC50) turned out to be 0.041 µM.
On the same count and under the same terms, to `Nc1nc(N)c(C(=O)N[C@H]2CCC[N+](CCCc3ccc(OCC(=O)OCC4COCCN4)cc3)(CCCc3ccc(OCC(=O)OCC4COCCN4)cc3)C2)nc1Cl` (stereo partly shown) [Example 6.42] belongs 0.112 µM; to `Nc1nc(N)c(C(=O)N[C@H]2CCC[N+](CCCc3ccc(OCC(=O)NCCn4ccnc4)cc3)(CCCc3ccc(OCC(=O)NCCn4ccnc4)cc3)C2)nc1Cl` [6.15], 0.009 µM; to `CC(O)CN(C)C(=O)COc1ccc(CCC[N+]2(CCCc3ccc(OCC(=O)N(C)CC(C)O)cc3)CCC[C@H](NC(=O)c3nc(Cl)c(N)nc3N)C2)cc1` (stereo partly shown) [Example 6.26], 0.07 µM.
On the same count and under the same terms, next, `COc1ccc(CCC[N+]2(CCCC3CCCCC3)CCCC(NC(=O)c3nc(Cl)c(N)nc3N)C2)cc1` (stereo not shown) [Example 3.3]: 0.099 µM.
For `CN(C)CCNC(=O)COc1ccc(CCC[N+]2(CCCc3ccc(OCC(=O)NCCN(C)C)cc3)CCC[C@H](NC(=O)c3nc(Cl)c(N)nc3N)C2)cc1` [Example 6.14], the half-maximal inhibitory concentration (IC50) turned out to be 0.045 µM.
For `COc1ccc(CCC[N+]2(CCCCc3ccccc3)CCCC(NC(=O)c3nc(Cl)c(N)nc3N)C2)cc1` (stereo not shown) [Example 3.4], the IC50 is 0.034 µM.
As for `Nc1nc(N)c(C(=O)N[C@H]2CCC[N+](CCCc3ccc(OCC(=O)N4CCC(O)CC4)cc3)(CCCc3ccc(OCC(=O)N4CCC(O)CC4)cc3)C2)nc1Cl` [Example 6.56], the IC50 is 0.092 µM.
For the compound `Nc1nc(N)c(C(=O)N[C@@H]2CCC[N+](CCCc3c(F)cccc3F)(CCCc3c(F)cccc3F)C2)nc1Cl` [Example 10.3, 3-[(3,5-Diamino-6-chloro-pyrazine-2-carbonyl)-amino]-1,1-bis-[3-(2,6-difluoro-phenyl)-propyl]-piperidinium chloride], the IC50 is 0.047 µM.
For `COc1ccc(OCC[N+]2(CCOc3ccc(OC)cc3)CCC[C@H](NC(=O)c3nc(Cl)c(N)nc3N)C2)cc1` [Example 10.6, 3-[(3,5-Diamino-6-chloro-pyrazine-2-carbonyl)-amino]-1,1-bis-[2-(4-methoxy-phenoxy)-ethyl]-piperidinium chloride], the IC50 was determined as 0.104 µM.
On to `COc1ccc(CCC[N+]2(CCCc3ccc(OC)cc3)CCC[C@@H](NC(=O)c3nc(Cl)c(N)nc3N)C2)cc1` [Example 1.5], for which the IC50 stood at 0.038 µM.
On to `COc1cccc(CCC[N+]2(CCCc3cccc(OC)c3)CCCC(NC(=O)c3nc(Cl)c(N)nc3N)C2)c1` (stereo not shown) [Example 10.2, 3-[(3,5-Diamino-6-chloro-pyrazine-2-carbonyl)-amino]-1,1-bis-[3-(3-methoxy-phenyl)-propyl]-piperidinium chloride], for which the IC50 worked out at 0.027 µM.
Turning to `CN(C)CCCNC(=O)COc1ccc(CCC[N+]2(CCCc3ccc(OCC(=O)NCCCN(C)C)cc3)CCCC(NC(=O)c3nc(Cl)c(N)nc3N)C2)cc1` (stereo not shown) [Example 6.7], the IC50 came out at 0.031 µM.
Regarding `COc1ccc(CCC[N+]2(CCCc3ccc(C(=O)NCCCN(C)C)cc3)CCCC(NC(=O)c3nc(Cl)c(N)nc3N)C2)cc1` (stereo not shown) [Example 5.7], the 50% inhibitory concentration (IC50) was 0.02 µM.
Still for that read-out and setting: to `C[S+]([O-])CCNC(=O)COc1ccc(CCC[N+]2(CCCc3ccc(OCC(=O)NCC[S+](C)[O-])cc3)CCC[C@H](NC(=O)c3nc(Cl)c(N)nc3N)C2)cc1` (stereo partly shown) [Example 6.45] belongs 0.039 µM.

Still in this test, the particulars now being: Ussing chamber, mouse kidney M-1 cells, short circuit current; unit inferred; read-out: IC50.
As for `COCCOc1ccc(CCC[N+]2(CCCc3ccc(OCCOC)cc3)CCCC(NC(=O)c3nc(Cl)c(N)nc3N)C2)cc1` (stereo not shown) [Example 9.3, 3-[(3,5-Diamino-6-chloro-pyrazine-2-carbonyl)-amino]-1,1-bis-{3-[4-(2-methoxy-ethoxy)-phenyl]-propyl}-piperidinium chloride], the half-maximal inhibitory concentration (IC50) is 0.022 µM.
For the compound `CN(C)CCOc1ccc(CCC[N+]2(CCCc3ccc(OCCN(C)C)cc3)CCC[C@H](NC(=O)c3nc(Cl)c(N)nc3N)C2)cc1` [Example 9.5, 3-[(3,5-Diamino-6-chloro-pyrazine-2-carbonyl)-amino]-1,1-bis-{3-[4-(2-dimethylamino-ethoxy)-phenyl]-propyl}-piperidinium chloride dihydrochloride], the IC50 is 0.063 µM.

Staying with this test, now noted: Ussing chamber, mouse kidney M-1 cells, short circuit current; value printed in the example text with μM; read-out: IC50.
As to `Nc1nc(N)c(C(=O)NC2CCC[N+](CCCc3ccc(C(=O)[O-])cc3)(CCCc3ccc(C(=O)O)cc3)C2)nc1Cl` (stereo not shown) [Example 4.1, 1,1-Bis-[3-(4-carboxy-phenyl)-propyl]-3-[(3,5-diamino-6-chloro-pyrazine-2-carbonyl)amino]-piperidinium], the concentration for half-maximal inhibition (IC50) came out at 0.35 µM.
With `COC(=O)CNC(=O)c1ccc(CCC[N+]2(CCCc3ccc(OC)cc3)CCCC(NC(=O)c3nc(Cl)c(N)nc3N)C2)cc1` (stereo not shown) [Example 5.2, 3-[(3,5-Diamino-6-chloro-pyrazine-2-carbonyl)-amino]-1-{3-[4-(methoxycarbonylmethylcarbamoyl)-phenyl]-propyl}-1-[3-(4-methoxy-phenyl)-propyl]-piperidinium chloride], the IC50 was determined as 0.042 µM.
On to `COc1ccc(CCC[N+]2(CC(=O)OC3CCCCC3)CCCC(NC(=O)c3nc(Cl)c(N)nc3N)C2)cc1` (stereo not shown) [Example 12.1, 1-Cyclohexyloxycarbonylmethyl-3-[(3,5-diamino-6-chloro-pyrazine-2-carbonyl)-amino]-1-[3-(4-methoxy-phenyl)-propyl]-piperidinium chloride], for which the IC50 was found to be 0.21 µM.
Consider `COC(=O)c1ccc(CCC[N+]2(CCCc3ccc(C(=O)OC)cc3)CCCC(NC(=O)c3nc(Cl)c(N)nc3N)C2)cc1` (stereo not shown) [Example 4, 3-[(3,5-Diamino-6-chloro-pyrazine-2-carbonyl)-amino]-1,1-bis-[3-(4-methoxycarbonylphenyl)-propyl]-piperidinium chloride], for which the IC50 worked out at 0.34 µM.
Consider `COc1ccc(CCC[N+]2(C)CCC(NC(=O)c3nc(Cl)c(N)nc3N)C2)cc1` (stereo not shown) [Example 3, 3-[(3,5-Diamino-6-chloro-pyrazine-2-carbonyl)-amino]-1-[3-(4-methoxy-phenyl)-propyl]-1-methyl-pyrrolidinium chloride], for which the IC50 turned out to be 0.79 µM.
